Experimental findings from US4503060A, “3-Imino-3H-dibenzo-[c,f]-imidazo-[1,5-a]azepine pharmaceuticals” (Boehringer Ingelheim KG, priority 1981, dated 1985) are described below.

Data set [1] has as its system passive cutaneous anaphylaxis (PCA). Put plainly: passive cutaneous anaphylaxis (PCA) in rats after passive sensitization with IgE antibodies and antigen provocation. In kind it is in vivo. The settings on record: po; Rat. The protocol: (a) Tests on allergized rats were carried out after passive sensitization of the animals with IgE antibodies and subsequent antigen provocation. In this way, passive cutaneous anaphylaxis (PCA) was produced (Goose et al [1969]: Immunology 16, 749).

The test system of the next data set is histamine wheal. Put plainly: histamine wheal (antihistaminic activity) in rats, Evans Blue extravasation. In kind it is in vivo. The text has this:
(b) Antihistaminic activity:
The results were quantified by measuring the wheal after extravasation of Evans Blue dye into the skin.

Another data set is described as follows: in vivo. The settings on record: mouse, po.

Regarding `Br.Cn1cc2n(c1=N)-c1ccccc1Cc1ccccc1-2` [Example 2, 2-Methyl-3-imino-2,3-dihydro-9H-dibenz-[c,f]-imidazo-[1,5-a]-azepine hydrobromide], the ED50 in data set [1] is 1.1 mg/kg. Further, in the data set on histamine wheal (i.v.), the “Histamine Wheal (rat) i.v.” value came to 0.07. In the data set on histamine wheal (p.o.), the “Histamine Wheal (rat) p.o.” value stood at 2.7. In the data set “in vivo”, this compound registered an LD50 of 280 mg/kg.

By ED50 is commonly meant the dose at which the effect has come halfway, by size or by number of responders. Broadly, the LD50 is the dose expected to kill half of the subjects tested. Read a low LD50 as greater toxicity.
